Where two headings read alike, the source gives them in different places. A value given as a limit tells only on which side of the number the result lay.

The values below come from article PMC11017388 (ACS Medicinal Chemistry Letters, 2024).

Data set [1] concerns the target T1, PKa (Homo sapiens, UniProt P03952). The conditions noted are these: competitive, reversible inhibitor; cited from earlier work.
Data set [2] can be described thus: Stability in DMSO and aqueous media (LCMS observation). Format: physicochemical. The note with it: protodeborylation observed by LCMS.
For another data set, the target named is T2, FXIIa (Homo sapiens, UniProt P00748).
T2 sequence (P00748 373-615 limits assumed): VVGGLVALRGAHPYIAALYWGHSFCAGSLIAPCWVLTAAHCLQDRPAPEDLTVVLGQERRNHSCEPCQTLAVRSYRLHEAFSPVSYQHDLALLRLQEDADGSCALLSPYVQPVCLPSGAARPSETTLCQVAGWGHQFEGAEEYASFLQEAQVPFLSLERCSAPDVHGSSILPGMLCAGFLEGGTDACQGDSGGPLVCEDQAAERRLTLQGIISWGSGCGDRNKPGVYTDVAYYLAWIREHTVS
Put plainly: Isolated enzyme potency against FXIIa, preincubation time course. The conditions noted are these: for IC50: read-out: FXIIa IC50; for Inhibition of FXIIa activity (in words): time course experiments.

The target in the next data set is plasma kallikrein (PKa) (Homo sapiens, UniProt P03952). Kind of data set: Isolated enzyme potency against PKa, IC50 after enzyme/inhibitor preincubation time course. The note with it: for Inhibition of PKa (in words): preincubation time course.
Data set [3] can be described thus: NMR stability study of pinacol boronate in PBS buffer. Format: physicochemical. The note with it: pH7.4 phosphate buffer (D2O). On the procedure:
Molecular docking experiments were conducted to visualize the potential binding mode of 20. However, it soon became apparent that the pinacol boronate group was too large to fit into the Ser195 subpocket. Having previously experienced hydrolysis of the pinacol boronate during purification, model substrate 17b was used to study the stability of the pinacol boronate in PBS buffer by NMR (see Supporting Information Figure S1).

The target of the next data set is Thrombin (Homo sapiens, UniProt P00734). Put plainly: Time-dependent potency determination against thrombin.
A further data set addresses Plasmin (Homo sapiens, UniProt P00747). Kind of data set: Time-dependent potency determination against plasmin.
The target of another data set is FXIa (Homo sapiens, UniProt P03951). Kind of data set: Time-dependent potency determination against FXIa. The format is biochemical. The source says: S5: Pharmacology: Material and Methods :
A further data set relates to Trypsin. Put plainly: Time-dependent potency determination against trypsin. The note with it: read-out: Trypsin IC50.
For data set [4], the target named is T1, PKa. Kind of data set: Compound dissociation assay (jump dilution). The note with it: 62.5-fold dilution after 10 min preincubation; monitored over 600 s with fluorogenic substrate.
The target in data set [5] is phosophodiesterase 4 (PDE4) enzyme. Details: method as in PMID 19303290. The conditions noted are these: read-out: potency; cited from earlier work.
Details of data set [6]: method as in PMID 34282650. The conditions noted are these: 150 mg daily dose, clinical studies; cited from earlier work.
Where [7] appears, read: read-out: PKa IC50, 5 min preincubation.
Setting [8] is: read-out: PKa IC50, 60 min preincubation.
The mark [9] stands for this setting: read-out: Thrombin IC50, 10 min preincubation.
Setting [10] is: read-out: Thrombin IC50, 60 min preincubation.
[11] abbreviates: Plasmin IC50, 1 min preincubation.
The mark [12] stands for this setting: Plasmin IC50, 10 min preincubation.
Setting [13] is: Plasmin IC50, 60 min preincubation.
Where [14] appears, read: read-out: PKa IC50, 1 min preincubation.
Setting [15] is: read-out: PKa IC50, 10 min preincubation.

T1 sequence (P03952 391-638 limits assumed): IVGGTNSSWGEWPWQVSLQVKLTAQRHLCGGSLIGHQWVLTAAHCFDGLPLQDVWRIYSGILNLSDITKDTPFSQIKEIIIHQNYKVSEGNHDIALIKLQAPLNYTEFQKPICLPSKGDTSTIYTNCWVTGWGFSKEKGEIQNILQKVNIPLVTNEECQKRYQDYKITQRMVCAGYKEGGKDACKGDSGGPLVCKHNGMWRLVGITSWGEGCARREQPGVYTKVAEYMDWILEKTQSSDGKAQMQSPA
T1 sequence (P03952 20-390 partner limits assumed): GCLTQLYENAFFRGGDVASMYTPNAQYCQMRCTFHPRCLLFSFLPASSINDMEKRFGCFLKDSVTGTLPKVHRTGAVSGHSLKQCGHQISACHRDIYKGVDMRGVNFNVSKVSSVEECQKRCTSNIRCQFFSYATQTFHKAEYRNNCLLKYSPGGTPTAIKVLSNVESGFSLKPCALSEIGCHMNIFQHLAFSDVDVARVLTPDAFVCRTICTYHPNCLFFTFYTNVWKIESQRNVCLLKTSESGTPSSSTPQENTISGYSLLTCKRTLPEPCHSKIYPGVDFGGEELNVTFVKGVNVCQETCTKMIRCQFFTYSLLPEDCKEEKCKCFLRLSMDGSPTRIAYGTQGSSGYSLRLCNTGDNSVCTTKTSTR
Chain of plasma kallikrein (PKa) (P03952 391-638 limits assumed): as the sequence (P03952 391-638 limits assumed) above
Chain of plasma kallikrein (PKa) (P03952 20-390 partner limits assumed): as the sequence (P03952 20-390 partner limits assumed) above
Chain of FXIa (P03951 388-625 limits assumed): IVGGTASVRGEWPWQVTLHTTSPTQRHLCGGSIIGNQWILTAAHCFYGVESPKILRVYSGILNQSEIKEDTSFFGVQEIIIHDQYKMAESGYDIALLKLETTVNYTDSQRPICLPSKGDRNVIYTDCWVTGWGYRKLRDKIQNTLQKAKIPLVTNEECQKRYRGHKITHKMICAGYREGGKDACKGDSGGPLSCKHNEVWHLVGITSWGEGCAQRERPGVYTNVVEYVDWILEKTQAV
Chain of FXIa (P03951 19-387 partner limits assumed): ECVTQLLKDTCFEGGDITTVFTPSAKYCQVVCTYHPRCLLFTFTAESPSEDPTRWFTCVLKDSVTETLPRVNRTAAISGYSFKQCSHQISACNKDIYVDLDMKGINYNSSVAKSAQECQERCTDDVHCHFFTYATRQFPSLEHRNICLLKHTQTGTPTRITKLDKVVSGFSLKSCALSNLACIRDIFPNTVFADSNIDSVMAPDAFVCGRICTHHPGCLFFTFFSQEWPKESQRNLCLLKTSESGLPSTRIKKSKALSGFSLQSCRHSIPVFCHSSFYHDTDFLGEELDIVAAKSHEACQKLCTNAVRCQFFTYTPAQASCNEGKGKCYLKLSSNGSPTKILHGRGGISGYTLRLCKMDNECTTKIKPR
Chain of Plasmin (P00747 581-810 limits assumed, species assumed): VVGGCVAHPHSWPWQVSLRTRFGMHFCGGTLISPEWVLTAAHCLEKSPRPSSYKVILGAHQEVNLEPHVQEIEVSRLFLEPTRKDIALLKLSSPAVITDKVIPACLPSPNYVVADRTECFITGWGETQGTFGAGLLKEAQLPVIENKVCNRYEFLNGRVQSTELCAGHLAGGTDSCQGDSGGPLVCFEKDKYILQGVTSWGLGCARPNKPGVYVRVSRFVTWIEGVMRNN
Chain of Plasmin (P00747 97-580 partner limits assumed, species assumed): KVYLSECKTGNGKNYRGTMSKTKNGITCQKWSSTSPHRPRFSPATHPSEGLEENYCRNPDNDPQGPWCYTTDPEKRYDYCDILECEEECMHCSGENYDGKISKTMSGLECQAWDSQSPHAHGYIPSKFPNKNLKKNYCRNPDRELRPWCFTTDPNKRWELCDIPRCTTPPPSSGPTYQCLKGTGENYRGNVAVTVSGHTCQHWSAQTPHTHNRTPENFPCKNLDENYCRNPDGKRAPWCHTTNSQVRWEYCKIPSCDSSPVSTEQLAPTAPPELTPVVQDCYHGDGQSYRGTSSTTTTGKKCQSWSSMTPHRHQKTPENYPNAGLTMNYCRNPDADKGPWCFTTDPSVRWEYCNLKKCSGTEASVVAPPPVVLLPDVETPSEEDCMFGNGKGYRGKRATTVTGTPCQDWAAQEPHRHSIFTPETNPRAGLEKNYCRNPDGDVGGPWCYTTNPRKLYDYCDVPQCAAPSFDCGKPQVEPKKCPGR
Experimental for FXIIa: (§1) Isolated enzyme potency was determined against PKa and FXIIa, using FXIIa as a test for the selective binding interaction with PKa.
Experimental for Plasmin: (§2) Time-dependent potency determination was carried out against FXIa, thrombin, trypsin, and plasmin to further evaluate the selectivity of compounds (Table 3).
Experimental for Thrombin: as §2
Experimental for Trypsin: as §2
Experimental for plasma kallikrein (PKa): as §1

Take `Cc1cc(N)nc(C)c1CNC(=O)c1cnn(Cc2ccc(Cn3cccn3)cc2)c1` [Compound 11]: the IC50 on PKa [1] was 2 nM.

`CC1(C)OB(C(N)c2cccc(Cl)c2)OC1(C)C.Cl` (centres unmarked) [Compound 15a]: the “Stability in DMSO / aqueous media” value in [2] is recorded as “unstable over time in DMSO”. In addition, the IC50 on FXIIa (5 min preincubation) is above 400 µM; on FXIIa (60 min preincubation), above 400 µM; at plasma kallikrein (PKa) (setting [7]), above 400000 nM; at plasma kallikrein (PKa) (setting [8]), above 400000 nM. The “Inhibition of PKa (in words)” value at plasma kallikrein (PKa) is “no activity”.

For `CC1(C)OB(C(NC(=O)c2cnn(Cc3ccccc3)c2)c2cccc(Cl)c2)OC1(C)C` (centres unmarked) [Compound 17a], the IC50 at FXIIa (5 min preincubation) and on FXIIa (60 min preincubation) was above 400 µM each time.

Turning to `Cc1ccc(C(NC(=O)c2cnn(Cc3ccccc3)c2)B2OC(C)(C)C(C)(C)O2)c(F)c1` (centres unmarked) [Compound 17b], the IC50 at FXIIa (5 min preincubation) and on FXIIa (60 min preincubation) was above 400 µM in each case. In addition, in [3], the “Stability of the pinacol boronate in PBS buffer by NMR” value was “rapidly hydrolyzed”.

For `O=C(NC(B(O)O)c1cccc(Cl)c1)c1cnn(Cc2ccccc2)c1` (centres unmarked) [Compound 18], the “Stability in DMSO / aqueous media” value in data set [2] is “instability in DMSO and aqueous media”. In addition, the IC50 was above 400 µM on FXIIa (5 min preincubation), above 400 µM on FXIIa (60 min preincubation), above 400000 nM on plasma kallikrein (PKa) (setting [7]) and above 400000 nM at plasma kallikrein (PKa) (setting [8]). The “Inhibition of FXIIa activity (in words)” value on FXIIa was “no activity”. Also, the “Inhibition of PKa (in words)” value on plasma kallikrein (PKa) is recorded as “no activity”.

Take `CC1(C)OB(C(NC(=O)c2cnn(Cc3ccc(Cn4cccn4)cc3)c2)c2cccc(Cl)c2)OC1(C)C` (centres unmarked) [Compound 19]: the IC50 at Thrombin, at Thrombin (setting [9]), on Thrombin (setting [10]), on Plasmin (setting [11]), at Plasmin (setting [12]) and against Plasmin (setting [13]) was above 40 µM throughout. Besides, the IC50 at FXIa (1 min preincubation), against FXIa (10 min preincubation) and against FXIa (60 min preincubation) was above 40 µM in each case.

As to `Cc1ccc(C(NC(=O)c2cnn(Cc3ccc(Cn4cccn4)cc3)c2)B2OC(C)(C)C(C)(C)O2)c(F)c1` (centres unmarked) [Compound 20], the IC50 on Thrombin, at Thrombin (setting [9]), on Thrombin (setting [10]), with Trypsin (1 min preincubation), in the data set on Trypsin (10 min preincubation) and with Trypsin (60 min preincubation) was above 40 µM in each case. Besides, the IC50 against Plasmin (setting [11]) is 22 µM; against Plasmin (setting [12]), 19.8 µM; against Plasmin (setting [13]) it was 12.1 µM; against plasma kallikrein (PKa), 0.33 nM; on plasma kallikrein (PKa) (setting [14]) it was 66 nM; at plasma kallikrein (PKa) (setting [15]), 6.9 nM. In addition, the IC50 on plasma kallikrein (PKa) (setting [8]) was determined as 0.3 nM; on plasma kallikrein (PKa) (read-out: PKa IC50, 2 h, extended time course) it was 0.29 nM; on plasma kallikrein (PKa) (read-out: PKa IC50, 24 h) it was 0.07 nM; against FXIa (1 min preincubation) it was 18.8 µM; against FXIa (10 min preincubation), 16.5 µM; against FXIa (60 min preincubation) it was 12.2 µM. Besides, the “Inhibition of FXIIa activity (in words)” value on FXIIa is recorded as “no effect”. Besides, the “Inhibitor dissociation from PKa” value on PKa [4] is reported as “no apparent reversibility”.

For `Cc1ccc(C(NC(=O)c2cnn(Cc3ccc(Cn4ccccc4=O)cc3)c2)B2OC(C)(C)C(C)(C)O2)c(F)c1` (centres unmarked) [Compound 21], the IC50 at plasma kallikrein (PKa) (setting [14]) is 94 nM; at plasma kallikrein (PKa) (setting [15]) it was 17 nM; at plasma kallikrein (PKa) (setting [8]) it was 1.9 nM.

For `O=C(NCc1cccc(Cl)c1)c1cnn(Cc2ccc(Cn3cccn3)cc2)c1` [Compound 24], the IC50 against Thrombin, on Thrombin (setting [9]), at Thrombin (setting [10]), in the data set with Trypsin (1 min preincubation), in the data set on Trypsin (10 min preincubation) and in the data set on Trypsin (60 min preincubation) was above 40 µM each time. Also, the IC50 against Plasmin (setting [11]) was above 40 µM; at Plasmin (setting [12]), above 40 µM; at Plasmin (setting [13]), above 40 µM; at plasma kallikrein (PKa) (setting [14]), above 40000 nM; at plasma kallikrein (PKa) (setting [15]) it was above 40000 nM; on plasma kallikrein (PKa) (setting [8]), above 40000 nM. Also, the IC50 against FXIa (1 min preincubation), against FXIa (10 min preincubation) and against FXIa (60 min preincubation) was above 40 µM throughout. Moreover, the “Inhibitor dissociation from PKa” value at PKa [4] is given as “rapid dissociation”. On plasma kallikrein (PKa), the “Inhibition of PKa (in words)” value is “no PKa inhibition”.

With `O=C(NCc1cccc(Cl)c1)c1cnn(Cc2ccc(Cn3ccccc3=O)cc2)c1` [Compound 25], the results for the IC50 at plasma kallikrein (PKa) (setting [14]), at plasma kallikrein (PKa) (setting [15]) and at plasma kallikrein (PKa) (setting [8]) were 270 nM, 284 nM and 278 nM, respectively.

Take `Cc1ccc(CNC(=O)c2cnn(Cc3ccc(Cn4cccn4)cc3)c2)c(F)c1` [Compound 26]: the IC50 against Thrombin, on Thrombin (setting [9]), at Thrombin (setting [10]), in the data set on Trypsin (1 min preincubation), in the data set with Trypsin (10 min preincubation) and in the data set on Trypsin (60 min preincubation) was above 40 µM each time. For the same compound, the IC50 on Plasmin (setting [11]) was above 40 µM; at Plasmin (setting [12]), above 40 µM; against Plasmin (setting [13]) it was above 40 µM; at plasma kallikrein (PKa) (setting [14]), 199 nM; on plasma kallikrein (PKa) (setting [15]), 203 nM; at plasma kallikrein (PKa) (setting [8]) it was 196 nM. Also, the IC50 against FXIa (1 min preincubation), against FXIa (10 min preincubation) and against FXIa (60 min preincubation) was above 40 µM in each case. At PKa [4], the “Inhibitor dissociation from PKa” value is recorded as “rapid dissociation”.

As for `Cc1ccc(CNC(=O)c2cnn(Cc3ccc(Cn4ccccc4=O)cc3)c2)c(F)c1` [Compound 27], the IC50 was 37 nM on plasma kallikrein (PKa) (setting [14]), 37 nM on plasma kallikrein (PKa) (setting [15]) and 35 nM at plasma kallikrein (PKa) (setting [8]).

Take `O=C(/C=C/c1cccc(Cl)c1)c1cnn(Cc2ccc(Cn3cccn3)cc2)c1` [Compound 29]: the IC50 on plasma kallikrein (PKa) (setting [14]), at plasma kallikrein (PKa) (setting [15]) and on plasma kallikrein (PKa) (setting [8]) was above 40000 nM in each case.

As for `CC1(C)OB(C(CC(=O)c2cnn(Cc3ccc(Cn4cccn4)cc3)c2)c2cccc(Cl)c2)OC1(C)C` (centres unmarked) [Compound 31], the IC50 at Thrombin, at Thrombin (setting [9]), on Thrombin (setting [10]), at Plasmin (setting [11]), against Plasmin (setting [12]) and against Plasmin (setting [13]) was above 40 µM throughout. Also, the IC50 on FXIa (1 min preincubation), on FXIa (10 min preincubation) and against FXIa (60 min preincubation) was above 40 µM in each case.

In the case of `Cc1ccc(C(CC(=O)c2cnn(Cc3ccc(Cn4cccn4)cc3)c2)B2OC(C)(C)C(C)(C)O2)c(F)c1` (centres unmarked) [Compound 32], the IC50 on Thrombin, at Thrombin (setting [9]), on Thrombin (setting [10]), at Plasmin (setting [11]), on Plasmin (setting [12]) and on Plasmin (setting [13]) was above 40 µM throughout. Further, the IC50 against FXIa (1 min preincubation), against FXIa (10 min preincubation) and against FXIa (60 min preincubation) was above 40 µM each time.

`N#Cc1ccc(Oc2ccc3c(c2)COB3O)cc1` [Crisaborole]: in data set [5], the IC50 was 490 nM.

For `N#Cc1cccc([C@@H](NCC2CC2)c2ccc(F)c(NC(=O)c3cc(C(F)(F)F)nn3-c3cccc(CN)c3)c2)c1` [berotralstat], in [6], the “Efficacy as an oral prophylactic for HAE” value was “efficacious”.

Turning to “D-Phe-Pro-Arg-chloromethylketone [Compound 23, reference compound]”, the IC50 at Plasmin (read-out: Plasmin IC50, 1 min preincubation) was 3.64 µM; at Plasmin (read-out: Plasmin IC50, 10 min preincubation), 1.22 µM; on Plasmin (read-out: Plasmin IC50, 60 min preincubation), 0.248 µM; against FXIa (1 min preincubation), above 40 µM; against FXIa (10 min preincubation), above 40 µM; at FXIa (60 min preincubation) it was above 40 µM.
